Where two headings read alike, the source gives them in different places.
Tests used:
[1] = Compound B pharmacokinetics after oral administration of a single dose alone (fasting) and with ritonavir (fed), human subjects; format: in vivo; settings: for half-life / Cmax / AUC / Tmax: plasma; for half-life / Ae % (drug recovered unchanged in urine, percent of administered dose): arithmetic mean; for half-life: read-out: t1/2 (terminal phase plasma half-life) (converted); for AUC: read-out: AUC (area under the concentration-time curve from time 0 to infinity); for Tmax: median
Protocol: Nos. 11/008325, filed Dec. 8, 2004, and 60/591,351, filed Jul. 26, 2004, all of which are hereby incorporated by reference for this purpose. A total of 21 human subjects were administered a single 300 mg, 900 mg, 1800 mg, or 3600 mg dose of a spray-dried composition comprising 90 wt % amorphous Compound B and 10 wt % hydroxypropyl methyl cellulose acetate succinate (HPMCAS) under fasting conditions. […] Each plasma sample was analyzed for the presence of Compound B and the following pharmacokinetic parameters for Compound B were determined for each subject: area under the concentration-time curve from time 0 extrapolated to infinity (AUC), maximum observed plasma concentration (Cmax), time to first occurrence of Cmax (Tmax), terminal phase plasma half-life (t %), CL/F=apparent oral clearance, and cumulative amount of drug recovered unchanged in the urine expressed as a percentage of administered dose (Ae %).

[2] = as above; format: in vivo; settings: geometric mean
[3] = po, 300 mg, single oral dose 300 mg (active dose 270 mg), alone, fasting
[4] = po, 300 mg, single oral dose 300 mg (active dose 270 mg), alone, fasting, geometric mean
[5] = po, 900 mg, single oral dose 900 mg (active dose 810 mg), alone, fasting
[6] = po, 900 mg, single oral dose 900 mg (active dose 810 mg), alone, fasting, geometric mean
[7] = po, 1800 mg, single oral dose 1800 mg (active dose 1620 mg), alone, fasting
[8] = po, 1800 mg, single oral dose 1800 mg (active dose 1620 mg), alone, fasting, geometric mean
[9] = po, 3600 mg, single oral dose 3600 mg (active dose 3240 mg), alone, fasting
[10] = po, 3600 mg, single oral dose 3600 mg (active dose 3240 mg), alone, fasting, geometric mean
[11] = po, single oral dose 300 mg (active 270 mg) + ritonavir (100 mg every 12 hours for 3 doses), fed
[12] = po, single oral dose 450 mg (active 405 mg) + ritonavir (100 mg every 12 hours for 3 doses), fed

half-life [1, 3]: 2.76 h | Cmax [1, 4]: 1530 ng/mL | AUC [1, 4]: 6110 ng·h/mL | Tmax [1, 3]: 0.5 h | half-life [1, 5]: 3.25 h | Cmax [1, 6]: 4610 ng/mL | AUC [1, 6]: 28200 ng·h/mL | Tmax [1, 5]: 2 h | half-life [1, 7]: 3.6 h | Cmax [1, 8]: 8670 ng/mL | AUC [1, 8]: 74500 ng·h/mL | Tmax [1, 7]: 3.02 h | half-life [1, 9]: 4.15 h | Cmax [1, 10]: 14500 ng/mL | AUC [1, 10]: 164000 ng·h/mL | Tmax [1, 9]: 4 h | half-life [1, 11]: 8.54 h | Tmax [1, 11]: 4 h | half-life [1, 12]: 10.3 h | Cmax ([1]; po, single oral dose 450 mg (active 405 mg) + ritonavir (100 mg every 12 hours for 3 doses), fed, geometric mean): 3830 ng/mL | Tmax [1, 12]: 4.02 h | AUC ([1]; single oral dose 300 mg (active 270 mg) + ritonavir (100 mg every 12 hours for 3 doses), fed, geometric mean): 34800 ng·h/mL | CL/F (apparent oral clearance) ([1]; single oral dose 300 mg (active dose 270 mg), alone, fasting, geometric mean): 44.2 L/h | AUC (area under the concentration-time curve from time 0 to infinity) ([1]; single oral dose 450 mg (active 405 mg) + ritonavir (100 mg every 12 hours for 3 doses), fed, geometric mean): 51600 ng·h/mL | CL/F (apparent oral clearance) ([1]; single oral dose 900 mg (active dose 810 mg), alone, fasting, geometric mean): 28.7 L/h | CL/F (apparent oral clearance) ([1]; single oral dose 1800 mg (active dose 1620 mg), alone, fasting, geometric mean): 21.7 L/h | CL/F (apparent oral clearance) ([1]; single oral dose 3600 mg (active dose 3240 mg), alone, fasting, geometric mean): 19.7 L/h | Cmax ([2]; plasma, po, single oral dose 300 mg (active 270 mg) + ritonavir (100 mg every 12 hours for 3 doses)): 3100 ng/mL | CL/F (apparent oral clearance) ([2]; single oral dose 300 mg (active 270 mg) + ritonavir (100 mg every 12 hours for 3 doses)): 7.75 L/h | CL/F (apparent oral clearance) ([2]; single oral dose 450 mg (active 405 mg) + ritonavir (100 mg every 12 hours for 3 doses)): 7.84 L/h
Compound: Cc1c(O)cccc1C(=O)N[C@@H](Cc1ccccc1)[C@H](O)C(=O)N1CC(F)(F)C(C)(C)[C@H]1C(=O)NCC(F)(F)F [Compound B, 4,4-difluoro-1-{(2S,3S)-2-hydroxy-3-[(3-hydroxy-2-methylbenzoyl)amino]-4-phenylbutanoyl}-3,3-dimethyl-N-(2,2,2-trifluoroethyl)-L-prolinamide]
Ae % (drug recovered unchanged in urine, percent of administered dose) ([1]; single oral dose 300 mg (active 270 mg) + ritonavir (100 mg every 12 hours for 3 doses), fed): 17.7% | Ae % (drug recovered unchanged in urine, percent of administered dose) ([1]; single oral dose 300 mg (active dose 270 mg), alone, fasting): 3.67% | Ae % (drug recovered unchanged in urine, percent of administered dose) ([1]; single oral dose 450 mg (active 405 mg) + ritonavir (100 mg every 12 hours for 3 doses), fed): 17.6% | Ae % (drug recovered unchanged in urine, percent of administered dose) ([1]; single oral dose 900 mg (active dose 810 mg), alone, fasting): 4.89% | Ae % (drug recovered unchanged in urine, percent of administered dose) ([1]; single oral dose 1800 mg (active dose 1620 mg), alone, fasting): 10.4% | Ae % (drug recovered unchanged in urine, percent of administered dose) ([1]; single oral dose 3600 mg (active dose 3240 mg), alone, fasting): 11.8%
